Laboratory results: patent US20240277684A1, “BLOCKADE OF CHEMOKINE (C-C MOTIF) RECEPTOR 2 DURING FLUID RESUSCITATION” (University of South Florida, priority 2022, published 2024)

Tests used:
[1] = tested on: severe hemorrhagic shock; assay: Example 2 Series 4: lethal hemorrhage without fluid resuscitation; type: in vivo, rat; conditions: 5 μmol/kg INCB3284 or 1 μmol/kg SB328437 after 40% TBV hemorrhage
Experimental: (§1) The hemorrhagic shock models were performed as described previously, with slight modifications (DeSantis A J, et al., The Chemokine (C-C Motif) Receptor 2 Antagonist INCB3284 Reduces Fluid Requirements and Protects From Hemodynamic Decompensation During Resuscitation From Hemorrhagic Shock. Crit Care Explor 2022;4(5):e0701; Bach H H, et al., Chemokine (C-X-C motif) receptor 4 and atypical chemokine receptor 3 regulate vascular alpha(1)-adrenergic receptor function. Mol Med 2014; 20:435-47; Nassoiy S P, et al., Effects of the Kv7 voltage activated potassium channel inhibitor linopirdine in rat models of hemorrhagic shock. Clin Exp Pharmacol Physiol 2018. doi: 10.1111/1440-1681.12958. PubMed PMID: 29702725; Bach H H, et al., Proteasome inhibition prolongs survival during lethal hemorrhagic shock in rats. J Trauma Acute Care Surg 2013; 74(2):499-507). In brief, anesthesia induction was performed with the animal and isoflurane-soaked gauze placed in a bell jar. After anesthesia induction, the animals were transferred to the operative field and anesthesia was maintained with 2.7% isoflurane administered via nose-cone inhalation with the SomnoSuite small animal anesthesia system (Kent Scientific Corporation, Torrington, CT, USA). […] Using a direct cut-down technique, the left femoral artery was isolated and cannulated with a 24-gauge peripheral intravenous catheter to allow for blood withdrawal, hemodynamic monitoring, drug administration, and fluid resuscitation. After catheter placement, isoflurane was decreased to 1.5%. Hemodynamics were continuously monitored with the Surgivet invasive blood pressure monitor (Med-Electronics, Beltsville, MD, USA). Blood pressures were recorded at 1-5 min intervals during the hemorrhage and resuscitation periods. Four subsequent series of experiments were performed. All experiments in each series were performed in alternating order. In all experiments animals were continuously monitored and remained under general anesthesia until euthanasia or death, as defined by asystole or loss of pulse pressure.
Series 4: The purpose of these experiments was to determine whether treatment with the chemokine receptor antagonists increases shock tolerance, blood pressure and survival time without additional fluid resuscitation. As such, death is an intentional endpoint. Earlier endpoints are unable to answer these questions and alternatives are not available. Rats were hemorrhaged 40% total blood volume (TBV) within 10 min. At t=15 min, animals were injected with vehicle (1 mL NS, n=3), 5 μmol/kg INCB3284 in 1 mL NS (n=5) or […] SB 328437 in 1 mL NS (n=5). Animals were then hemorrhaged 2% TBV every 5 minutes until death.

[2] = tested on: hemorrhagic shock; assay: Example 2 Series 3: 60 min hemorrhagic shock, redosing, fluid resuscitation until t=300 min; type: in vivo, rat; conditions: 5 μmol/kg at t=60 min and t=200 min
Experimental: as §1
Series 3: Rats were hemorrhaged to a MAP of less than or equal to 30 mmHg for a period of 60 min, followed by fluid resuscitation until t=300 min as in Series 2. At the end of the hemorrhagic shock period (t=60 min) and at t=200 min, animals were injected with 1 mL of NS (n=7) or with 5 μmol/kg INCB3284 in 1 mL NS (n=7). At t=0 min, 60 min, 120 min, 180 min, 240 min and 300 min, blood samples (0.3 ml) were obtained and used for arterial blood gas analyses and measurements of routine laboratory parameters. At t=300 min, surviving animals were euthanized (5% isoflurane inhalation, bilateral pneumothorax).
Arterial blood gases and routine laboratory parameters. Arterial blood gases, electrolytes, creatinine, lactate, hematocrit and hemoglobin were analyzed using the Element point of care veterinary blood gas, electrolyte and critical care analyzer (Cuattro Veterinary USA, Loveland, CO, USA).

[3] = target: CCR2 (Homo sapiens, UniProt P41597); conditions: read-out: IC50, inhibiting monocyte chemoattractant protein-1 binding to hCCR2; cited from earlier work
[4] = tested on: isolated rat mesenteric arteries; assay: Pressure myography with isolated rat mesenteric arteries; conditions: 10 μM, 15 min pre-exposure, vs vehicle
[5] = rats; cited from earlier work

Sequence of CCR2 (P41597 whole entry): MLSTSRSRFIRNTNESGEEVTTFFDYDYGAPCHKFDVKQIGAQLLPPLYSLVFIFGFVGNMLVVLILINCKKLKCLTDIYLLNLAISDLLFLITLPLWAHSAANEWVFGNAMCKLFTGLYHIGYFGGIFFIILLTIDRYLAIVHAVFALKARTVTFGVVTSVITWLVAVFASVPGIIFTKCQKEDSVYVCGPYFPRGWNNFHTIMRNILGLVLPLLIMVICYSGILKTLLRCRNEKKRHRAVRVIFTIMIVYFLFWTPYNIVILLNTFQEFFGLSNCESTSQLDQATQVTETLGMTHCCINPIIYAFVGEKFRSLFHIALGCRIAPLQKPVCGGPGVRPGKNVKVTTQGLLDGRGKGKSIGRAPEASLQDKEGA

## COc1ccc([C@]2(O)CC[C@@H](N3CC[C@@H](NC(=O)CNC(=O)c4cccc(C(F)(F)F)c4)C3)CC2)cn1 [INCB3284]
[1]; no fluid resuscitation
  MAP during subsequent 2% TBV hemorrhages in 5 min intervals: indistinguishable among groups
[1]; not significantly different between groups
  median survival time: 80 min
[2]
  steep increase in fluid requirements: prevented
[2]; at t=300 min, vs vehicle
  reduction of total fluid requirements: 75%
[2]; at t=300 min, p<0.05 vs. vehicle
  total fluid requirements: 33 ± 16 mL/kg
[2]; p<0.05 vs. vehicle
  median survival time: undefined
  mortality: zero
[3]
  IC50: 3.7 nM
[4]
  artery diameter: did not alter artery diameter
  phenylephrine-induced vasoconstriction: did not alter artery diameter or affect phenylephrine-induced vasoconstriction
[5]
  half-live: 168 min
